These results are taken from a melting point compilation (Tetko et al.; mined from patent text by program, amines drawn as free bases though some values may be those of a salt).

The structures appear in SMILES notation. A value given as a limit tells only on which side of the number the result lay.

`COc1ccc2cc(C(C)COC(=O)c3cc(O)c4c(c3)C(=O)c3cccc(O)c3C4=O)ccc2c1` (stereo unspecified) returned a melting point of 147 to 151 °C.

`NC1=NS(=O)N=C1NCCCOc1cc(CN2CCCCC2)ccn1` (stereo unspecified) had a melting point of 154 to 158 °C.

Regarding `CCC(N)=C(C(C)=O)C(=O)N(CCN(C)C)c1ccccc1`, the melting point fell in the range of 103 to 105 °C.

As to `CCCCCCCCCCCC(=O)N1CCOC1=O`, the melting point lay in the range of 63 to 65 °C.

As for `COc1cc(C(=O)NS(=O)(=O)c2ccccc2C)ccc1Cn1cc(/C=C/C(=O)N(C)C)c2ccc(/C=C/C(=O)N(C)C)cc21`, the melting point fell in the range of 271 to 273 °C.

The compound `Cc1noc(NS(=O)(=O)c2ccc(Cc3ccccc3)s2)c1Br` came in with a melting point of 49 to 50 °C.

The compound `COc1cc2ncc(C#N)c(Nc3cccc(CO)c3C)c2cc1OC` displayed a melting point of 123 to 125 °C.

For `C[C@@H]1CN(c2ccc(C(F)(F)F)cn2)C[C@H](C)N1CC(=O)N1CC=C(c2ccc3ccccc3n2)CC1`, the melting point was 94 to 95 °C.

In turn, `COc1ccc(CNc2nc(N3CCCC3CO)nnc2C(=O)NCc2ncccn2)cc1Cl` (stereo unspecified) displayed a melting point of 170 to 173 °C.

In turn, `CC(C)n1nc(-c2ccc(OCCCCl)cc2)c2sccc2c1=O` returned a melting point of 92 to 94 °C.

`CC(CCc1cc2cccnc2n(-c2cccc([N+](=O)[O-])c2)c1=O)c1ccncc1` (stereo unspecified) registered a melting point of 154 to 155 °C.

As for `O=S(=O)(Nc1ccccc1OCc1csc(-c2ccccc2)n1)C(F)(F)F`, the melting point is 123 to 125 °C.

For `COc1cccc(-c2nc(NO)nc(Nc3cccc([N+](=O)[O-])c3)n2)c1`, the melting point was in the range of 197 to 198 °C.

In turn, `COc1ccc(OC)c2c1C(=O)C=C(SCCO)C2=O` came in with a melting point of 117 to 118 °C.

`CCOC(=O)CCC(S)COC(=O)C1=C(C)NC(C)=C([N+](=O)[O-])C1c1ccccc1OCc1ccccc1` (stereo unspecified) displayed a melting point of 133 °C.

In the case of `NC(=O)C(=O)c1ccccc1CCl`, the melting point lay within 105 to 107 °C.

On to `Cc1cc(N2N=CCNC2=O)cc(Cl)c1C(C#N)c1ccc(Cl)nc1` (stereo unspecified), for which the melting point was 211 to 212 °C.

Compound `COc1ccc(CNc2ccc(F)c(Cl)c2)cc1OC` displayed a melting point of 127 to 128 °C.

`CC(C)(NC(=O)C(COCc1ccccc1)NC(=O)c1ccccc1)c1ccccc1` (stereo unspecified) displayed a melting point of 88 to 90 °C.

In turn, `CN1CCCCC1COC(=O)Nc1cccc(Br)c1` (stereo unspecified) yielded a melting point of 67.3 to 68.1 °C.

Regarding `CN(C)C(=O)Cn1nnnc1S`, the melting point is 204 to 205 °C.

As to `Cc1cc(NS(=O)(=O)c2ccc(Nc3nc(OCC4CCCCC4)c4nc[nH]c4n3)cc2)nc(C)n1`, the melting point is 233 °C.

For `O=C(O)COc1cccc(CCc2nc(-c3ccccc3)c(-c3ccccc3)o2)c1`, the melting point fell in the range of 153 to 154 °C.

For the compound `CC(C)n1nc(-c2nc(-n3cccc3)c(N)nc2-c2ccccc2)ccc1=O`, the melting point was in the range of 132 to 136 °C.

`CCOC(=O)c1cnc(N2CCN(S(=O)(=O)c3ccc4ccccc4c3)CC2)nc1` gave a melting point above 260 °C.

On to `COC(=O)c1ccccc1-c1ccc(C)cc1`, for which the melting point is 119 to 121 °C.

Consider `CC(=O)OC1CSC(Oc2cc(F)ccc2-c2cccnc2)C(OC(C)=O)C1OC(C)=O` (stereo unspecified), for which the melting point was determined as 66 °C.

`CCCCNC(=O)N(C)c1cccc(-c2ccc(C=C(OCC)C(=O)O)cc2)c1` gave a melting point of 126 °C.

Take `Nc1nc(-c2cc(Cl)nc(Cl)c2)cs1`: the melting point lay within 239 to 247 °C.

Turning to `CCOC(=O)c1cn(CC)c2cc(F)c(F)c(C)c2c1=O`, the melting point is 157 to 159 °C.

The compound `CCOCc1nc2c(N)nc3cc(-c4ccccc4)cnc3c2n1CCCON=C(C)C` gave a melting point of 134 to 136 °C.

As to `CON1C(=O)CC2(CCN(C(=O)C3=C(C)NC(C)=C([N+](=O)[O-])C3c3ccccc3C(F)(F)F)CC2)C1=O` (stereo unspecified), the melting point is 261 to 263 °C.

Compound `Cc1ccc(S(=O)(=O)OC2=C(Br)C(=O)c3ccc4c(c3C2=O)C=CC(C)(C)O4)cc1` yielded a melting point of 182 to 184 °C.

Take `Cc1cc(N2N=CCNC2=O)cc(Cl)c1Sc1nccn1C`: the melting point was in the range of 173 to 174 °C.

For the compound `Cn1cnc(COc2nn3c(-c4ccc(F)cc4)nnc3cc2-c2ccccc2)n1`, the melting point lay in the range of 233 to 235 °C.

For `Cc1cc2cc(OCCCCBr)ccc2[nH]1`, the melting point fell in the range of 77 to 79 °C.

Compound `C=C(Cl)C(=O)Nc1ccc(Cl)cc1` returned a melting point of 105 to 106 °C.

In turn, `Cc1cc(C)cc(C(=O)NC(C(N)=O)n2cccn2)c1` (stereo unspecified) yielded a melting point of 193 to 195 °C.

Compound `Cc1cc(SCc2cccc3cn(-c4ccc(C(F)(F)F)cc4)nc23)ccc1OCC(=O)O` had a melting point of 79 to 81 °C.

`COc1ccc2c(c1)C13CCN(C#N)C(C2)C1CC(C)C(=O)C3` (stereo unspecified): the melting point is 188 to 192 °C.

On to `Cc1ccc(-c2cc(-c3ccc(F)cc3)c(C(=O)NCc3ccc(C(=O)NO)cc3)[nH]2)cc1`, for which the melting point lay in the range of 213 to 215 °C.

`OC1(Cn2cncn2)CCCCC12OC2c1ccc(Cl)cc1` (stereo unspecified) had a melting point of 150 °C.

Consider `CCCCCCCCCCCC(=O)OC1CC(c2ccccc2)NC(c2ccccc2)C1C` (stereo unspecified), for which the melting point lay within 56 to 59 °C.

On to `Cc1nc(N)sc1-c1ccnc(CC2CC2)n1`, for which the melting point was in the range of 198 to 200 °C.

`Cc1cc(-n2ccc(OCc3ccc(F)cc3)cc2=O)sc1C(=O)NCc1ccccc1`: the melting point was 195 to 197 °C.

Compound `CN(O)C(=O)Nc1ccc([N+](=O)[O-])c(C(F)(F)F)c1` returned a melting point of 129 to 130 °C.

`COc1ccccc1C(=O)c1noc(CC(N)=O)n1` gave a melting point of 149 to 150 °C.

Regarding `COc1cc(C(=O)NS(=O)(=O)c2ccccc2C)ccc1Cc1c(Cl)n(C)c2ccc(CC(C)NC(=O)N(C)C)cc12` (stereo unspecified), the melting point fell in the range of 120 to 130 °C.

Turning to `COc1ccc(-c2cc(=S)n(Cc3ccc(F)cc3)nc2-c2ccc(OC)cc2)cc1`, the melting point lay within 137 to 138 °C.

`O=C(CCC12CCC(=O)N1C(=O)CC2)OCc1ccccc1` gave a melting point of 80 to 82 °C.

Turning to `CC(C)n1nc(-c2sc(C(=O)N3CCOCC3)nc2-c2ccccc2)ccc1=O`, the melting point turned out to be 162 °C.

As to `CCCNC(=O)[C@H](C)C[C@H](O)[C@H](CC1CCCCC1)NC(=O)OC(C)(C)C`, the melting point fell in the range of 115 to 116 °C.

Consider `COCCOc1cc(NS(=O)(=O)c2ccccn2)c2[nH]c(C3=NCC(CN4CCS(=O)(=O)CC4)S3)cc2c1` (stereo unspecified), for which the melting point was in the range of 218 to 219 °C.

`O=C(c1cc(Br)ccc1[N+](=O)[O-])C(Br)C(Br)c1ccc(Br)cc1` (stereo unspecified): the melting point was in the range of 200 to 201 °C.

On to `CCCc1nc(C(=O)OCC)c(C(=O)OCC)[nH]1`, for which the melting point was 81 to 83 °C.

For the compound `O=C1NCCN(NC(=O)c2ccc(O)c(O)c2)C1=O`, the melting point was found to be 294 °C.

Consider `COCCOc1ccc(/C=C/C(=O)NS(=O)(=O)c2ccccc2Cl)c(Oc2ncc(C(F)(F)F)cc2Cl)c1`, for which the melting point was 168 to 169 °C.

The compound `S=C1Nc2ccccc2CN(c2ccccc2)N1` returned a melting point of 242 to 244 °C.

In turn, `Nc1ccc([N+](=O)[O-])c(Cl)c1Cl` returned a melting point of 170 to 174 °C.

Take `CCOc1c(C(F)(F)F)cc([N+](=O)[O-])c(Nc2ncc(C(F)(F)F)cc2Cl)c1[N+](=O)[O-]`: the melting point fell in the range of 106 to 108 °C.

In turn, `COC(=O)C1(Cl)C[C@H](OC(C)=O)[C@@H](NC(C)=O)[C@H]([C@H](OC(C)=O)[C@@H](COC(C)=O)OC(C)=O)O1` (stereo partly specified) came in with a melting point of 116 to 118 °C.

`O=C(O)c1c(Cc2cc3c(cc2Cl)OCO3)c(-c2ccsc2)nn1CC1CCCCC1`: the melting point worked out at 250 °C.

Regarding `O=C(O)CCc1ccnc(-c2nc(=O)c3ccccc3s2)c1`, the melting point is 215 to 216 °C.

Consider `C=CCC(CC)(CC)C(=O)O[C@H]1C[C@H](O)C=C2C=C[C@H](C)[C@H](CC[C@@H]3C[C@@H](O)CC(=O)O3)[C@H]21`, for which the melting point fell in the range of 107 to 108 °C.

`Cc1c(O)ccc2c(=O)c(-c3ccccc3O)coc12` registered a melting point of 196 to 198 °C.

In turn, `NC(=O)c1sc2ncnc(-c3cccc(NC(=O)Cc4ccccc4)c3)c2c1N` yielded a melting point of 255 to 258 °C.

As for `CCS(=O)(=O)Nc1ccc(OC(=O)NC)cc1C`, the melting point fell in the range of 146 to 148 °C.

The compound `COc1cc(OC)c2c(C)c(CCN3CCN(c4cccc(C(F)(F)F)c4)CC3)c(=O)oc2c1` registered a melting point of 138 to 139 °C.

On to `CC(C)N1CCC(C(C(N)=O)(c2ccccc2)c2ccccc2)C1` (stereo unspecified), for which the melting point lay in the range of 110 to 112 °C.

On to `CCCCc1c[nH]c2ccc(CO)cc2c1=O`, for which the melting point amounted to 260 °C.

The compound `O=C(O)c1ccc(N(Cc2cncs2)c2ccc(OC(F)F)c(OC(F)F)c2)cc1` showed a melting point of 144 to 146 °C.

Consider `CCOC(=O)c1c(NC)c(N=O)c2ccccn12`, for which the melting point was in the range of 156 to 157 °C.

For the compound `CCOc1ccc2c(ccn2C)c1O`, the melting point fell in the range of 69 to 70 °C.

In turn, `Cc1cc(C)n(Cc2ccc(Cl)cc2Cl)c1C=O` had a melting point of 88 to 89 °C.

`Cc1cc(C(F)F)c2c(n1)C(O)CCC2` (stereo unspecified) yielded a melting point of 101 to 104 °C.

`CC1CCCCC1NC(=O)[C@@H](C)NC(=O)[C@@H](N)CC(=O)O` (stereo partly specified) gave a melting point of 206 to 209 °C.

Compound `CCOC(=O)c1cnc2c(c(-c3ccccc3)nn2C)c1N(C)S(=O)(=O)c1ccc(Oc2ccncc2)cc1` registered a melting point of 128 to 131 °C.

The compound `O=c1[nH]c2ncc(-c3ccc(-c4cc[nH]n4)cc3)nc2n1CC1CCCCC1` had a melting point of 292 to 294 °C.

Regarding `O=C(O)c1cc(Cl)c(Cl)c(Cl)n1`, the melting point lay in the range of 115 to 120 °C.

The compound `N#C[C@@H]1CCC[C@H]2OC[C@@H](c3ccccc3)N12` yielded a melting point of 81 °C.

`COc1ccc(-c2nc3c(OC)cccc3s2)cc1` had a melting point of 86 to 88 °C.

As to `CCCc1c2occ(C(=O)O)cc-2c(=O)c2cc(C(=O)O)sc12`, the melting point is above 250 °C.

As to `CN(C[C@@H](CCO)c1ccc(Cl)c(Cl)c1)C(=O)c1ccccc1`, the melting point fell in the range of 123 to 125 °C.

`CC1CCCCC1C(=O)Nc1ccc(-c2cnc(-c3ccc(NC(=O)c4cccnc4)cc3)[nH]2)cc1` (stereo unspecified) registered a melting point of 226 to 228 °C.

As for `CCCc1nc(C(C)(C)O)c(C(=O)OCOC(=O)C(C)(C)C)n1Cc1ccc(-c2ccccc2C(=O)OC(C)(C)C)cc1`, the melting point lay within 106 to 107 °C.

Compound `CN1c2ccccc2Sc2cc(C=CC3(C=Cc4ccc5c(c4)Sc4ccccc4N5C)C=CC(c4ccccc4)=CC3)ccc21` (stereo unspecified) gave a melting point of 380 °C.
